The text below walks through data of patent publication US20230372498A1, “PLK1 SELECTIVE DEGRADATION INDUCING COMPOUND” (UPPTHERA, priority 2020, published 2023).

As a reminder, the DC50 is the concentration giving 50% degradation. As usually defined, the Dmax is the greatest extent of degradation seen.

This assay concerns the target T1, PLK1 (Homo sapiens, UniProt P53350).
T1 construct: endogenous in cells; host or cells: HeLa
Nature of the assay: PLK1 protein degradation in HeLa cells, Western blotting (PLK1/GAPDH ratio). It counts as cell-based. To be noted: for DC50 / Dmax: 6 hours compound incubation; for DC50: measured only if the grade of Dmax is A or B; for Dmax: thymidine block and release, 10 points three-fold from 3 μM, PLK1 to GAPDH ratio, read-out: Dmax. From the text: The HeLa cell line was purchased from Korea Cell Line Bank (KCLB), Seoul, Korea. The passage in cell culture was maintained at P115 to P125.
For cell culture, DMEM (Gibco, Cat. No. 1195-65; Lot. No. 2085318), FBS (Gibco, Cat. No. 16000-044; Lot. No. 2097593), Penicillin/Streptomycin (PS) (Gibco, Cat. No. 15140-122; Lot. No. 2058855), 100 mm^2 cell culture dish (SPL, Cat. No. 20100), 150 mm^2 cell culture dish (SPL, Cat. No. 20150), 12-well culture plate (SPL, Cat. No. 30012), PBS pH 7.4 (Gibco, Cat. No. 10010-023; Lot. No. 2085080), TrypLE™ Express (Gibco, Cat. No. 12605-010; Lot No. 2070638), Counting Chamber (Hematocytometer) (Hirschmann, Cat. No. 8100204), and 0.4% Trypan Blue Solution (DYNEBIO, Cat. No. CBT3710; Lot. No. 20190723) were used.
2×10^5 cells were seeded for each well of a 12-well plate (SPL), and the cells were cultured in the culture medium in a total volume of 2 ml.
The compounds of Examples were completely dissolved in DMSO and used in the experiment, and thymidine was completely dissolved in DW and used in the experiment. For thymidine block, the products were treated with 2 mM of thymidine (Sigma-Aldrich Cat. No. T9250-5G) and then incubated for 24 hours.
For release and chemical treatment, the medium was suctioned and washed 3 times with 1×PBS. Complete media was added, followed by incubation for 4 hours in a CO2 incubator. Each compound was diluted three folds from the highest concentration of 3 μM to the lowest concentration in 10 points and then incubated for 6 hours again.
For SDS-PAGE and Western blotting, 1×RIPA lysis buffer (Rockland, Cat. No. MB-030-0050; Lot no. 39751), 100× Protease Inhibitor Cocktail (Quartett, Cat. No. PPI1015; Lot no. PCO50038424), Pierce™ BCA protein assay kit (ThermoScientific, Cat. No. 23225; Lot no. UC276876), albumin standard (ThermoScientific, Cat. No. 23209; Lot no. UB269561), 4-15% Mini-PROTEAN TGX stain-free gel (Bio-rad, Cat. No. 4568085; Lot no. L007041B), 10× Tris/Glycine/SDS buffer (Bio-rad, Cat. No. 1610732; Lot no. 10000044375B); 10×TBS (Bio-rad, Cat. No. 1706435; Lot no. 1000045140B), 10% Tween 20 (Cat. No. 1610781; Lot no. L004152B), Color protein standard broad range (NEB, Cat. No. P7719S; Lot no. 10040349), 4× Laemmli sample buffer (Bio-rad, Cat. No. 1610747; Lot no. L004133B), β-mercaptoethanol (Sigma-Aldrich, Cat. No. M3148; Lot no. 60-24-2), SuperBlock™ T20 (TBS) blocking buffer (ThermoScientific, Cat. No. 37536; Lot no. UC282578), 1M sodium azide solution (Sigma-Aldrich, Cat. No. 08591-1 mL-F; Lot no. BCBV4989), α-Rabbit pAb to Ms IgG (abcam, Cat. No. ab97046; Lot no. GR3252115-1), α-Goat pAb to Rb IgG (CST, Cat. No. 7074S; Lot no. 28), α-GAPDH (abcam, Cat. No. ab8245; Lot no. GR3275542-2), α-Plk1 (CST, Cat. No. 208G4), α-BRD4 (CST, Cat. No. 13440S), ECL™ Prime western blotting reagents (GE Healthcare, Cat. No. RPN2232; Lot no. 17001655), Ponceau S solution (Sigma-Aldrich, Cat. No. P7170; Lot no. SLBV4112), Difco™ Skim milk (BD, Cat. No. 232100; Lot no. 8346795), and iBlot® 2 NC Regular stacks (Invitrogen, Cat. No. IB323001; Lot no. 2NR110619-02) were used.
For cell harvesting, the cells were first separated from the plate using trypsin and then washed with the medium and PBS. Specifically, the medium was suctioned off and washed with 1 mL of PBS, and PBS was suctioned off. The cells were treated with 0.5 mL TrypLE™ Express at 37° C. for 7 minutes to separate the cells, and then 0.5 mL of complete medium was added to collect 1 mL of cell culture solution. Then, 1 mL of the cell collection solution was centrifuged at 8,000 rpm for 120 seconds, and the supernatant was removed. After washing with 0.2 mL of PBS, the PBS was removed.
For cell lysis, a lysis buffer was added and cell debris was removed to obtain a cell lysate. Specifically, the cells were treated with 70 μL of 1×RIPA buffer containing a protease inhibitor and incubated for 30 minutes on ice. Then, the cells were centrifuged at 4° C. and 15,000 rpm for 10 minutes to obtain a cell lysate. […]

T1 sequence (P53350 whole entry): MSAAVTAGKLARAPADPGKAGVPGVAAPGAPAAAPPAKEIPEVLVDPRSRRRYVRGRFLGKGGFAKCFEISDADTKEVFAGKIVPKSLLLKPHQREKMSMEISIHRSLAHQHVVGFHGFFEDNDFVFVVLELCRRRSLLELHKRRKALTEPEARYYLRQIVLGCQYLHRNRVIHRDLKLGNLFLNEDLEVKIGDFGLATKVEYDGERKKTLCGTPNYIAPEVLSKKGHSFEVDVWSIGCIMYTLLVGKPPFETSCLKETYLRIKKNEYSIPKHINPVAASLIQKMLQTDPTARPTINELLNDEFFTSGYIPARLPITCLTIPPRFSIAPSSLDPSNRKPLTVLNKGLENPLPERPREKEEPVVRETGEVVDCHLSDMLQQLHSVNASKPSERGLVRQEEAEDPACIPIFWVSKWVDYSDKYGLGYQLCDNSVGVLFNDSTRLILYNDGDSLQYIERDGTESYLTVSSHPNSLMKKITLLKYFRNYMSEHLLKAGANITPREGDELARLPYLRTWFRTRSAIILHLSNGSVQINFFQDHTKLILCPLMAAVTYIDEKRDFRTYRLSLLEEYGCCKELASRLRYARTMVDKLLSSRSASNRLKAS

`COc1cc(C(=O)N[C@H]2CCN(C(=O)CCN3CCN(c4cccc5c4C(=O)N(C4CCC(=O)NC4=O)C5=O)CC3)C2)c(F)cc1Nc1ncc2c(n1)N(C1CCCC1)CC(F)(F)C(=O)N2C` (stereo partly drawn) [Compound 131, 4-((9-cyclopentyl-7,7-difluoro-5-methyl-6-oxo-6,7,8,9-tetrahydro-5H-pyrimido[4,5-b][1,4]diazepin-2-yl)amino)-N-((3S)-1-(3-(4-(2-(2,6-dioxopiperidin-3-yl)-1,3-dioxoisoindolin-4-yl)piperazin-1-yl)propanoyl)pyrrolidin-3-yl)-2-fluoro-5-methoxybenzamide]: the DC50 is at most 0.05 µM and the Dmax is at least 80%.
For `COc1cc(C(=O)N[C@H]2CCN(C(=O)CN3CCN(c4cccc5c4C(=O)N(C4CCC(=O)NC4=O)C5=O)CC3)C2)c(F)cc1Nc1ncc2c(n1)N(C1CCCC1)CC(F)(F)C(=O)N2C` (stereo partly drawn) [Compound 130], the DC50 is at most 0.05 µM and the Dmax was at least 80%.
Take `COc1cc(C(=O)N[C@H]2CCN(C(=O)CCN3CCN(c4ccc5c(c4)C(=O)N(C4CCC(=O)NC4=O)C5=O)CC3)C2)ccc1Nc1ncc2c(n1)N(C1CCCC1)CC(F)(F)C(=O)N2C` (stereo partly drawn) [Example 174, 4-((9-cyclopentyl-7,7-difluoro-5-methyl-6-oxo-6,7,8,9-tetrahydro-5H-pyrimido [4,5-b][1,4]diazepin-2-yl)amino)-N-((3S)-1-(3-(4-(2-(2,6-dioxopiperidin-3-yl)-1,3-dioxoisoindolin-5-yl)piperazin-1-yl)propanoyl)pyrrolidin-3-yl)-3-methoxybenzamide]: the Dmax was at least 80%.
For the molecule `COc1cc(C(=O)NCCCCCCCCNc2cccc3c2C(=O)N(C2CCC(=O)NC2=O)C3=O)c(F)cc1Nc1ncc2c(n1)N(C1CCCC1)CC(F)(F)C(=O)N2C` (stereo not drawn) [Compound 154, 4-((9-cyclopentyl-7,7-difluoro-5-methyl-6-oxo-6,7,8,9-tetrahydro-5H-pyrimido[4,5-b][1,4]diazepin-2-yl)amino)-N-(8-((2-(2,6-dioxopiperidin-3-yl)-1,3-dioxoisoindolin-4-yl)amino)octyl)-2-fluoro-5-methoxybenzamide], the Dmax was under 60%.
On to `COc1cc(C(=O)NC2CCN(CCOCCNc3cccc4c3C(=O)N(C3CCC(=O)NC3=O)C4=O)C2)c(F)cc1Nc1ncc2c(n1)N(C1CCCC1)CC(F)(F)C(=O)N2C` (stereo not drawn) [Example 106, 4-((9-cyclopentyl-7,7-difluoro-5-methyl-6-oxo-6,7,8,9-tetrahydro-5H-pyrimido[4,5-b][1,4]diazepin-2-yl)amino)-N-(1-(2-(2-((2-(2,6-dioxopiperidin-3-yl)-1,3-dioxoisoindolin-4-yl)amino)ethoxy)ethyl)pyrrolidin-3-yl)-2-fluoro-5-methoxybenzamide], for which the DC50 was at most 0.5 µM and the Dmax fell in the range of 60 to 80%.
On the same counts, the results for `CN1C(=O)C(F)(F)CN(C2CCCC2)c2nc(Nc3cc(F)c(C(=O)NC4CCN(CCOCCOCCNc5cccc6c5C(=O)N(C5CCC(=O)NC5=O)C6=O)CC4)cc3OC3CC3)ncc21` (stereo not drawn) [Example 92, 4-((9-cyclopentyl-7,7-difluoro-5-methyl-6-oxo-6,7,8,9-tetrahydro-5H-pyrimido[4,5-b][1,4]diazepin-2-yl)amino)-5-cyclopropoxy-N-(1-(2-(2-(2-((2-(2,6-dioxopiperidin-3-yl)-1,3-dioxoisoindolin-4-yl)amino)ethoxy)ethoxy)ethyl)piperidin-4-yl)-2-fluorobenzamide] are at most 0.05 µM and at least 80%.
On the same counts, the results for `COc1cc(C(=O)N[C@H]2CCN(CC(=O)NCCCNc3cccc4c3C(=O)N(C3CCC(=O)NC3=O)C4=O)C2)c(F)cc1Nc1ncc2c(n1)N(C1CCCC1)CC(F)(F)C(=O)N2C` (stereo partly drawn) [Compound 122] are at most 0.05 µM and at least 80%.
For the molecule `COc1cc(C(=O)NC2CCN(CCCCCCCC(=O)Nc3cccc4c3C(=O)N(C3CCC(=O)NC3=O)C4=O)CC2)c(F)cc1Nc1ncc2c(n1)N(C1CCCC1)CC(F)(F)C(=O)N2C` (stereo not drawn) [Compound 38, 4-((9-cyclopentyl-7,7-difluoro-5-methyl-6-oxo-6,7,8,9-tetrahydro-5H-pyrimido[4,5-b][1,4]diazepin-2-yl)amino)-N-(1-(8-((2-(2,6-dioxopiperidin-3-yl)-1,3-dioxoisoindolin-4-yl)amino)-8-oxooctyl)piperidin-4-yl)-2-fluoro-5-methoxybenzamide], the DC50 is at most 0.5 µM and the Dmax is 60 to 80%.
As for `COc1cc(C(=O)N[C@H]2CCN(C(=O)CCC(=O)N3CCN(c4ccc5c(c4)C(=O)N(C4CCC(=O)NC4=O)C5=O)CC3)C2)ccc1Nc1ncc2c(n1)N(C1CCCC1)CC(F)(F)C(=O)N2C` (stereo partly drawn) [Compound 145, 4-((9-cyclopentyl-7,7-difluoro-5-methyl-6-oxo-6,7,8,9-tetrahydro-5H-pyrimido[4,5-b][1,4]diazepin-2-yl)amino)-N-((3S)-1-(4-(4-(2-(2,6-dioxopiperidin-3-yl)-1,3-dioxoisoindolin-5-yl)piperazin-1-yl)-4-oxobutanoyl)pyrrolidin-3-yl)-3-methoxybenzamide], the DC50 is over 0.5 µM and the Dmax fell in the range of 60 to 80%.
Turning to `COc1cc(C(=O)NC2CCN(CCOCCOCCNc3cccc4c3C(=O)N(C3CCC(=O)NC3=O)C4=O)CC2)c(F)cc1Nc1ncc2c(n1)N(C1CCCC1)CC(F)(F)C(=O)N2C` (stereo not drawn) [Compound 2, 4-((9-cyclopentyl-7,7-difluoro-5-methyl-6-oxo-6,7,8,9-tetrahydro-5H-pyrimido[4,5-b][1,4]diazepin-2-yl)amino)-N-(1-(2-(2-(2-((2-(2,6-dioxopiperidin-3-yl)-1,3-dioxoisoindolin-4-yl)amino)ethoxy)ethoxy)ethyl)piperidin-4-yl)-2-fluoro-5-methoxybenzamide], the DC50 was at most 0.05 µM and the Dmax was at least 80%. For the same molecule, for the setting “in comparison with Comparative Compounds”, the “PLK1 protein degradability (western blot, FIG. 1 and 2)” value is reported as “excellent PLK1 protein degradability”.
Take `COc1cc(C(=O)NC2CN(CCOCCOCCNc3cccc4c3C(=O)N(C3CCC(=O)NC3=O)C4=O)C2)c(F)cc1Nc1ncc2c(n1)N(C1CCCC1)CC(F)(F)C(=O)N2C` (stereo not drawn) [Compound 123, 4-((9-cyclopentyl-7,7-difluoro-5-methyl-6-oxo-6,7,8,9-tetrahydro-5H-pyrimido[4,5-b][1,4]diazepin-2-yl)amino)-N-(1-(2-(2-(2-((2-(2,6-dioxopiperidin-3-yl)-1,3-dioxoisoindolin-4-yl)amino)ethoxy)ethoxy)ethyl)azetidin-3-yl)-2-fluoro-5-methoxybenzamide]: the DC50 was at most 0.05 µM and the Dmax is at least 80%.
